These results are taken from ChEMBL document CHEMBL5338744, “Development and Characterization of Benzoselenazole Derivatives as Potent and Selective c-MYC Transcription Inhibitors” (J Med Chem, 2023).

The test system of one series is HepG2. Briefly: Cytotoxicity against human HepG2 cells assessed as reduction in cell viability incubated for 48 hrs by MTT assay. The series is classed as functional, cell-based. To be noted: HepG2, 48 h.
A word on the IC50: it is the concentration that inhibits the measured activity by half. As to `C(=C\c1nc2ccccc2[se]1)/c1ccc2c(c1)c1ccccc1n2Cc1ccccc1`, the IC50 is above 100 µM.
As for `CCn1c2ccccc2c2cc(/C=C/c3nc4c(ccc5ccccc54)[se]3)ccc21`, the IC50 was above 100 µM.
The same measure, in the same setting: the value for `C[n+]1c(/C=C/c2ccc3c(c2)c2ccccc2n3Cc2ccccc2)sc2ccccc21` was 7.4 µM.

Another series concerns HCT-116. In words: Cytotoxicity against human HCT-116 cells assessed as reduction in cell viability incubated for 48 hrs by MTT assay. The series is classed as functional, cell-based. To be noted: HCT-116, 48 h. (In general: Tetrazolium dyes change colour on reduction, which living cells bring about.)
`C(=C\c1nc2ccccc2[se]1)/c1ccc2c(c1)c1ccccc1n2Cc1ccccc1`: the IC50 was above 100 µM.
`CCn1c2ccccc2c2cc(/C=C/c3nc4c(ccc5ccccc54)[se]3)ccc21`: the IC50 is above 100 µM.
Still for that read-out and setting: the value for `C[n+]1c(/C=C/c2ccc3c(c2)c2ccccc2n3Cc2ccccc2)sc2ccccc21` was 4.1 µM.

System in the next series: not listed separately
In words: Cytotoxicity against human NCM460 cells assessed as reduction in cell viability incubated for 48 hrs by MTT assay.
Details: not given
The series is classed as toxicity, cell-based.
As to `C(=C\c1nc2ccccc2[se]1)/c1ccc2c(c1)c1ccccc1n2Cc1ccccc1`, the IC50 at 48 h was above 100 µM.
Turning to `CCn1c2ccccc2c2cc(/C=C/c3nc4c(ccc5ccccc54)[se]3)ccc21`, the IC50 at 48 h was above 100 µM.
With `C[n+]1c(/C=C/c2ccc3c(c2)c2ccccc2n3Cc2ccccc2)sc2ccccc21`, the IC50 at 48 h was 45.6 µM.
